The values that follow are results of earlier work, collected in PubChem BioAssay AID1259409 (Chemical Carcinogenesis Research Information System (CCRIS), 2018).

In this data set the test system is rodent chemically induced tumor inhibition, incidence and multiplicity. The data set is described as follows: CCRIS tumor inhibitor studies.

The structures appear in SMILES notation.

With `O=c1cc(-c2ccccc2)oc2ccccc12`, the “tumour outcome (control, treated, inhibition, significance)” value runs as follows: (Carcinogen: 7,12-DIMETHYLBENZ[A]ANTHRACENE, 57-97-6, Dose [Inhibitor]: 0, 45 NMOL IN 0.2 ML ACETONE APPLIED 5 MIN PRIOR TO CARCINOGEN (STUDY DURATION: 21 WK), Route [Inhibitor]: DERMAL, Species: MOUSE, Strain/Sex: SENCAR/FEMALE, Target Tissue: Type of Lesion: SKIN: PAPILLOMA, Dose [Carcinogen]: 10 NMOL IN 0.2 ML ACETONE ONCE, Promoter: 12-O-TETRADECANOYLPHORBOL-13-ACETATE, 16561-29-8) 79%, 93%, -18%, not calculated; (Carcinogen: 7,12-DIMETHYLBENZ[A]ANTHRACENE, 57-97-6, Dose [Inhibitor]: 0, 450 NMOL IN 0.2 ML ACETONE APPLIED 5 MIN PRIOR TO CARCINOGEN (STUDY DURATION: 21 WK), Route [Inhibitor]: DERMAL, Species: MOUSE, Strain/Sex: SENCAR/FEMALE, Target Tissue: Type of Lesion: SKIN: PAPILLOMA, Dose [Carcinogen]: 10 NMOL IN 0.2 ML ACETONE ONCE, Promoter: 12-O-TETRADECANOYLPHORBOL-13-ACETATE, 16561-29-8) 79%, 100%, -27%, not calculated; (Carcinogen: 7,12-DIMETHYLBENZ[A]ANTHRACENE, 57-97-6, Dose [Inhibitor]: 0, 4500 NMOL IN 0.2 ML ACETONE APPLIED 5 MIN PRIOR TO CARCINOGEN (STUDY DURATION: 21 WK), Route [Inhibitor]: DERMAL, Species: MOUSE, Strain/Sex: SENCAR/FEMALE, Target Tissue: Type of Lesion: SKIN: PAPILLOMA, Dose [Carcinogen]: 10 NMOL IN 0.2 ML ACETONE ONCE, Promoter: 12-O-TETRADECANOYLPHORBOL-13-ACETATE, 16561-29-8) 79%, 80%, -1%, not calculated; (Carcinogen: 7,14-DIMETHYLBENZO[A,H]ANTHRACENE, 35335-07-0, Dose [Inhibitor]: 0, 45 NMOL IN 0.2 ML ACETONE APPLIED 5 MIN PRIOR TO CARCINOGEN (STUDY DURATION: 21 WK), Route [Inhibitor]: DERMAL, Species: MOUSE, Strain/Sex: SENCAR/FEMALE, Target Tissue: Type of Lesion: SKIN: PAPILLOMA, Dose [Carcinogen]: 47.5 NMOL IN 0.2 ML ACETONE ONCE, Promoter: 12-O-TETRADECANOYLPHORBOL-13-ACETATE, 16561-29-8) 97%, 97%, 0%; (Carcinogen: 7,14-DIMETHYLBENZO[A,H]ANTHRACENE, 35335-07-0, Dose [Inhibitor]: 0, 450 NMOL IN 0.2 ML ACETONE APPLIED 5 MIN PRIOR TO CARCINOGEN (STUDY DURATION: 21 WK), Route [Inhibitor]: DERMAL, Species: MOUSE, Strain/Sex: SENCAR/FEMALE, Target Tissue: Type of Lesion: SKIN: PAPILLOMA, Dose [Carcinogen]: 47.5 NMOL IN 0.2 ML ACETONE ONCE, Promoter: 12-O-TETRADECANOYLPHORBOL-13-ACETATE, 16561-29-8) 97%, 97%, 0%; (Carcinogen: 7,14-DIMETHYLBENZO[A,H]ANTHRACENE, 35335-07-0, Dose [Inhibitor]: 0, 4500 NMOL IN 0.2 ML ACETONE APPLIED 5 MIN PRIOR TO CARCINOGEN (STUDY DURATION: 21 WK), Route [Inhibitor]: DERMAL, Species: MOUSE, Strain/Sex: SENCAR/FEMALE, Target Tissue: Type of Lesion: SKIN: PAPILLOMA, Dose [Carcinogen]: 47.5 NMOL IN 0.2 ML ACETONE ONCE, Promoter: 12-O-TETRADECANOYLPHORBOL-13-ACETATE, 16561-29-8) 97%, 68%, 30%, not calculated. Further, the “tumour outcome (control, treated, inhibition, significance)” value runs as follows: (Carcinogen: DIBENZO[A,H]ANTHRACENE, 53-70-3, Dose [Inhibitor]: 0, 45 NMOL IN 0.2 ML ACETONE APPLIED 5 MIN PRIOR TO CARCINOGEN (STUDY DURATION: 21 WK), Route [Inhibitor]: DERMAL, Species: MOUSE, Strain/Sex: SENCAR/FEMALE, Target Tissue: Type of Lesion: SKIN: PAPILLOMA, Dose [Carcinogen]: 200 NMOL IN 0.2 ML ACETONE ONCE, Promoter: 12-O-TETRADECANOYLPHORBOL-13-ACETATE, 16561-29-8) 100%, 93%, 7%, not calculated; (Carcinogen: DIBENZO[A,H]ANTHRACENE, 53-70-3, Dose [Inhibitor]: 0, 450 NMOL IN 0.2 ML ACETONE APPLIED 5 MIN PRIOR TO CARCINOGEN (STUDY DURATION: 21 WK), Route [Inhibitor]: DERMAL, Species: MOUSE, Strain/Sex: SENCAR/FEMALE, Target Tissue: Type of Lesion: SKIN: PAPILLOMA, Dose [Carcinogen]: 200 NMOL IN 0.2 ML ACETONE ONCE, Promoter: 12-O-TETRADECANOYLPHORBOL-13-ACETATE, 16561-29-8) 100%, 86%, 14%, not calculated; (Carcinogen: DIBENZO[A,H]ANTHRACENE, 53-70-3, Dose [Inhibitor]: 0, 4500 NMOL IN 0.2 ML ACETONE APPLIED 5 MIN PRIOR TO CARCINOGEN (STUDY DURATION: 21 WK), Route [Inhibitor]: DERMAL, Species: MOUSE, Strain/Sex: SENCAR/FEMALE, Target Tissue: Type of Lesion: SKIN: PAPILLOMA, Dose [Carcinogen]: 200 NMOL IN 0.2 ML ACETONE ONCE, Promoter: 12-O-TETRADECANOYLPHORBOL-13-ACETATE, 16561-29-8) 100%, 93%, 7%, not calculated; (Dose [Inhibitor]: 0, 1000 PPM IN DIET BEGINNING 8 WK PRIOR TO CARCINOGEN AND CONTINUING FOR 6 WK POST CARCINOGEN (STUDY DURATION: 68 WK), Route [Inhibitor]: ORAL, Species: FISH, Strain/Sex: RAINBOW TROUT, Target Tissue: Type of Lesion: LIVER: HEPATOCELLULAR CARCINOMA, Dose [Carcinogen]: 20 PPB IN DIET FOR 2 WK, Promoter: NONE USED) 43/118 (36%), 45/120 (38%), -5%, not significant.

Take `C=C1CC[C@H]2[C@](C)(COC(=O)[C@@H](CC(=O)O)[C@@H](OC[C@H]3C(=C)CC[C@H]4[C@](C)(CO)CCC[C@]34C)C(=O)OC)CCC[C@]2(C)[C@H]1CO[C@@H](C(=O)OC)[C@H](CC(=O)O)C(=O)OC`: the “tumour outcome (control, treated, inhibition, significance)” value (Carcinogen: 1,2-DIMETHYLHYDRAZINE DIHYDROCHLORIDE, 306-37-6, Dose [Inhibitor]: 0: 0.06% IN DIET FOR DURATION OF STUDY (STUDY DURATION: 25 WK), Route [Inhibitor]: ORAL, Species: MOUSE, Strain/Sex: ICR/FEMALE, Target Tissue: Type of Lesion: COLON: TUMOR, Dose [Carcinogen]: 10 MG/KG BW IN 0.9% SALINE 1/WK FOR 15 WK, Promoter: NONE USED) is reported as 10/16 (63%), 5/16 (31%), 51%, not significant; the “tumour outcome (control, treated, inhibition, significance)” value (Carcinogen: 7,12-DIMETHYLBENZ[A]ANTHRACENE, 57-97-6, Dose [Inhibitor]: 0, 1 MG 2/WK FOR 20 WK APPLIED 10 MIN PRIOR TO EACH PROMOTER DOSE (STUDY DURATION: 20 WK), Route [Inhibitor]: DERMAL, Species: MOUSE, Strain/Sex: CD-1/FEMALE, Target Tissue: Type of Lesion: SKIN: TUMOR, Dose [Carcinogen]: 100 UG ONCE, Promoter: OKADAIC ACID, 78111-17-8) was 73%, 53%, 27%, not calculated; the “tumour outcome (control, treated, inhibition, significance)” value (Carcinogen: 7,12-DIMETHYLBENZ[A]ANTHRACENE, 57-97-6, Dose [Inhibitor]: 0, 5 MG 2/WK FOR 20 WK APPLIED 10 MIN PRIOR TO EACH PROMOTER DOSE (STUDY DURATION: 20 WK), Route [Inhibitor]: DERMAL, Species: MOUSE, Strain/Sex: CD-1/FEMALE, Target Tissue: Type of Lesion: SKIN: TUMOR, Dose [Carcinogen]: 100 UG ONCE, Promoter: OKADAIC ACID, 78111-17-8) was 73%, 20%, 73%, not calculated; the “tumour outcome (control, treated, inhibition, significance)” value (Carcinogen: N-METHYL-N-NITROSOUREA, 684-93-5, Dose [Inhibitor]: 0, 0.2% IN DIET FOR 33 WK BEGINNING POST CARCINOGEN TREATMENT (STUDY DURATION: 35 WK), Route [Inhibitor]: ORAL, Species: RAT, Strain/Sex: F344/FEMALE, Target Tissue: Type of Lesion: COLON: TUMOR, Dose [Carcinogen]: 2 MG 3/WK FOR 2 WK, Promoter: NONE USED) is recorded as 12/16 (75%), 5/16 (31%), 57%, p<0.05.
